Measurements: ChEMBL document CHEMBL2331208, “Steroids glycosylated with both D- and L-arabinoses from the South China Sea gorgonian Dichotella gemmacea” (J Nat Prod, 2013)
Where a name gives a salt, the structure may show the parent alone.

Legend:
[1] = test system: MG-63; assay: Cytotoxicity against human MG63 cells by MTT assay; type: functional, cell-based
[2] = test system: A549; assay: Cytotoxicity against human A549 cells by MTT assay; type: functional, cell-based

Structure (SMILES) | IC50 [1] [µM] | IC50 [2] [µM]
CC(=O)OC(C)(C)CCC[C@@H](C)[C@H]1CC[C@H]2[C@@H]3CC=C4C[C@@H](O[C@H]5OC[C@H](O)[C@H](O)[C@H]5O)CC[C@]4(CO)[C@H]3CC[C@]12C [JUNCEELLOSIDE C] | 17.2 | 11.4
COc1cccc2c1C(=O)c1c(O)c3c(c(O)c1C2=O)C[C@@](O)(C(=O)CO)C[C@@H]3O[C@H]1C[C@H](N)[C@H](O)[C@H](C)O1 [DOXORUBICIN HYDROCHLORIDE] | 3.4 | –
C=C(CC[C@@H](C)[C@H]1CC[C@H]2[C@@H]3CC=C4C[C@@H](O[C@H]5OC[C@H](O)[C@H](O)[C@H]5O)CC[C@]4(CO)[C@H]3CC[C@]12C)C(C)(C)OC(C)=O [JUNCEELLOSIDE E] | > 50 | > 50
CC(=O)OC(C)(C)C/C=C/[C@@H](C)[C@H]1CC[C@H]2[C@@H]3CC=C4C[C@@H](O[C@@H]5OC[C@@H](O)[C@@H](O)[C@@H]5O)CC[C@]4(CO)[C@H]3CC[C@]12C [JUNCEELLOSIDE F] | 23 | > 50
CC(=O)O[C@@H]1[C@H](O[C@H]2CC[C@@]3(CO)C(=CC[C@@H]4[C@@H]3CC[C@]3(C)[C@@H]([C@H](C)CCCC(C)(C)OC(C)=O)CC[C@@H]43)C2)OC[C@@H](O)[C@H]1O [JUNCEELLOSIDE G] | 23 | 13.9
